Data published in PMC4965013, “Open Source Drug Discovery with the Malaria Box Compound Collection for Neglected Diseases and Beyond” (PLoS Pathogens, 2016).

What was measured:
[1] = tested on: P. falciparum 3D7 trophozoites; test: Metabolomic fingerprint profiling LC-MS; type: cell-based, Plasmodium falciparum; design: UDP-D-glucose / ADP-D-glucose: unit not given here; conditions: for Acetyllysine / N-acetyl-L-ornithine / N-carbamoyl-L-aspartate / NADPH / dAMP / dCMP / dTDP / dTMP / dTTP / dihydroorotate / orotate / DLH / DLS/SDL/SID / PD / PEE / PVNF / 3-phosphoglycerate / ADP-D-glucose / ATP / CDP / D-sedoheptulose-1/7-phosphate / FAD / GMP / NAD+ / NADP+ / Octoluse Bisphosphate / Pyroglutamic acid / UDP-D-glucose / UDP-D-glucuronate / UDP-N-acetyl-glucosamine / UDP / UMP / UTP / a-ketoglutarate / citrate/isocitrate / cytidine / dATP / dGMP/AMP / fumarate / glucose-1/6-phosphate / glycerate / guanine / guanosine / hypoxanthine / indole / inosine / nicotinate / ornithine / phosphoenolpyruvate / pyruvate / ribose-phosphate / sarcosine/alanine / sn-glycerol-3-phosphate / succinate/methylmalonic acid / uridine / xanthosine: S2 Table Metabolomics; for Acetyllysine: metabolite Acetyllysine; for N-acetyl-L-ornithine: metabolite N-acetyl-L-ornithine; for N-carbamoyl-L-aspartate: metabolite N-carbamoyl-L-aspartate; for NADPH: metabolite NADPH; for dAMP: metabolite dAMP; for dCMP: metabolite dCMP; for dTDP: metabolite dTDP; for dTMP: metabolite dTMP; for dTTP: metabolite dTTP; for dihydroorotate: metabolite dihydroorotate; for orotate: metabolite orotate; for DLH: peptide DLH; for DLS/SDL/SID: peptide DLS/SDL/SID; for PD: peptide PD; for PEE: peptide PEE; for PVNF: peptide PVNF; for 3-phosphoglycerate: metabolite 3-phosphoglycerate; for ADP-D-glucose: metabolite ADP-D-glucose; for ATP: metabolite ATP; for CDP: metabolite CDP; for CDP / D-sedoheptulose-1/7-phosphate / GMP / Octoluse Bisphosphate / UDP / UMP / UTP / citrate/isocitrate / dGMP/AMP / fumarate / glucose-1/6-phosphate / glycerate / guanine / guanosine / inosine / pyruvate / sarcosine/alanine / succinate/methylmalonic acid / uridine / xanthosine: change in metabolite level after compound treatment; for D-sedoheptulose-1/7-phosphate: metabolite D-sedoheptulose-1/7-phosphate; for FAD: metabolite FAD; for GMP: metabolite GMP; for NAD+: metabolite NAD+; for NADP+: metabolite NADP+; for Octoluse Bisphosphate: metabolite Octoluse Bisphosphate; for Pyroglutamic acid: metabolite Pyroglutamic acid; for UDP-D-glucose: metabolite UDP-D-glucose; for UDP-D-glucuronate: metabolite UDP-D-glucuronate; for UDP-N-acetyl-glucosamine: metabolite UDP-N-acetyl-glucosamine; for UDP: metabolite UDP; for UMP: metabolite UMP; for UTP: metabolite UTP; for a-ketoglutarate: metabolite a-ketoglutarate; for citrate/isocitrate: metabolite citrate/isocitrate; for cytidine: metabolite cytidine; for dATP: metabolite dATP; for dGMP/AMP: metabolite dGMP/AMP; for fumarate: metabolite fumarate; for glucose-1/6-phosphate: metabolite glucose-1/6-phosphate; for glycerate: metabolite glycerate; for guanine: metabolite guanine; for guanosine: metabolite guanosine; for hypoxanthine: metabolite hypoxanthine; for indole: metabolite indole; for inosine: metabolite inosine; for 2_3-Diphosphoglyceric acid / 4-phosphopantothenate / 6-phospho-D-gluconate / FMN / IMP / Pyrophosphate / Sedoheptoluse bisphosphate / cyclic-AMP / glutathione disulfide / lactate / myo-inositol: metabolite level change after treatment; for nicotinate: metabolite nicotinate; for ornithine: metabolite ornithine; for phosphoenolpyruvate: metabolite phosphoenolpyruvate; for pyruvate: metabolite pyruvate; for ribose-phosphate: metabolite ribose-phosphate; for sarcosine/alanine: metabolite sarcosine/alanine; for sn-glycerol-3-phosphate: metabolite sn-glycerol-3-phosphate; for succinate/methylmalonic acid: metabolite succinate/methylmalonic acid; for uridine: metabolite uridine; for xanthosine: metabolite xanthosine
[2] = tested on: P. falciparum; test: EC50 listed in S2 Table Metabolomics (used to set the concentration tested); type: cell-based; conditions: Plasmodium falciparum; EC50 used for Factor_XEC50 in metabolomics; read-out: EC50_nM

## CSC1=NC(=Nc2c(C)cccc2C)C2(CCC(C(C)(C)C)CC2)N1c1ccc(Cl)cc1 (stereo not drawn) [MMV666596]
[1]
  Acetyllysine: 0.05532
  N-acetyl-L-ornithine: 0.3033
  N-carbamoyl-L-aspartate: 4.209
  NADPH: 0.4611
  dAMP: -1.695
  dCMP: -0.02373
  dTDP: -0.6033
  dTMP: -0.6441
  dTTP: -0.4211
  dihydroorotate: 4.453
  orotate: -0.2494
  DLH: 0.07485
  DLS/SDL/SID: 0.1058
  PD: 0.3494
  PEE: 0.3362
  PVNF: -0.2122
  3-phosphoglycerate: 0.06499
  ADP-D-glucose: 0.1455
  ATP: -0.04037
  CDP: -0.436
  D-sedoheptulose-1/7-phosphate: -0.1476
  FAD: 0.02917
  GMP: -0.07998
  NAD+: -0.07608
  NADP+: 0.2106
  Octoluse Bisphosphate: -0.01707
  Pyroglutamic acid: -0.1892
  UDP-D-glucose: -0.01772
  UDP-D-glucuronate: -0.05432
  UDP-N-acetyl-glucosamine: -0.1657
  UDP: -0.847
  UMP: -0.5062
  UTP: -0.6788
  a-ketoglutarate: -0.3441
  citrate/isocitrate: -0.1956
  cytidine: -0.05016
  dATP: 0.3608
  dGMP/AMP: -0.2908
  fumarate: 0.4042
  glucose-1/6-phosphate: -0.3631
  glycerate: -0.704
  guanine: -0.05943
  guanosine: 0.2542
  hypoxanthine: -0.3496
  indole: -0.1947
  inosine: -0.267
  2_3-Diphosphoglyceric acid: 0.06366
  4-phosphopantothenate: -0.3594
  6-phospho-D-gluconate: 0.1204
  FMN: 0.0335
  IMP: -0.08883
  Pyrophosphate: 0.1408
  Sedoheptoluse bisphosphate: 0.09241
  cyclic-AMP: -0.008887
  glutathione disulfide: 0.04205
  lactate: -0.4137
  myo-inositol: -0.699
  nicotinate: -0.1654
  ornithine: 0.2004
  phosphoenolpyruvate: 0.0459
  pyruvate: -0.8143
  ribose-phosphate: 0.02121
  sarcosine/alanine: -0.1953
  sn-glycerol-3-phosphate: 0.3928
  succinate/methylmalonic acid: 0.09915
  uridine: -0.4544
  xanthosine: -0.03694
[2]
  EC50: 135 nM

## CCOC(=O)c1cn(CC)c2cc(N3CCCCC3)c(F)cc2c1=O [MMV665827]
[1]
  Acetyllysine: 0.6167
  N-acetyl-L-ornithine: 0.5501
  N-carbamoyl-L-aspartate: 4.792
  NADPH: 0.6598
  dAMP: 0.7737
  dCMP: 1.737
  dTDP: 0.1707
  dTMP: 0.8282
  dTTP: 0.03923
  dihydroorotate: 4.825
  orotate: -0.5812
  DLH: -0.7896
  DLS/SDL/SID: 0.01567
  PD: 0.7077
  PEE: -1.44
  PVNF: -0.1312
  3-phosphoglycerate: -0.02186
  ADP-D-glucose: 0.2064
  ATP: 0.6896
  CDP: 0.1387
  D-sedoheptulose-1/7-phosphate: 0.4202
  FAD: 0.7349
  GMP: -0.6725
  NAD+: 0.4401
  NADP+: 0.5706
  Octoluse Bisphosphate: 0.2411
  Pyroglutamic acid: -0.2796
  UDP-D-glucose: 0.1953
  UDP-D-glucuronate: -0.1324
  UDP-N-acetyl-glucosamine: 0.2567
  UDP: 0.4721
  UMP: -1.447
  UTP: -1.04
  a-ketoglutarate: -0.2461
  citrate/isocitrate: -1.463
  cytidine: 0.4678
  dATP: 0.6493
  dGMP/AMP: 0.07314
  fumarate: -0.2241
  glucose-1/6-phosphate: 1.8807
  glycerate: -0.09674
  guanine: 1.02
  guanosine: 0.7998
  hypoxanthine: -0.3352
  indole: -0.0107
  inosine: 0.5749
  2_3-Diphosphoglyceric acid: 0.1079
  4-phosphopantothenate: 0.2143
  6-phospho-D-gluconate: 0.3355
  FMN: 0.4894
  IMP: 0.7697
  Pyrophosphate: -1.117
  Sedoheptoluse bisphosphate: 0.6312
  cyclic-AMP: 0.6768
  glutathione disulfide: 0.6276
  lactate: 1.255
  myo-inositol: 2.498
  nicotinate: -0.197
  ornithine: 0.8346
  phosphoenolpyruvate: -0.2956
  pyruvate: 0.5345
  ribose-phosphate: 0.3041
  sarcosine/alanine: 0.4367
  sn-glycerol-3-phosphate: 0.2478
  succinate/methylmalonic acid: -0.3191
  uridine: 0.6011
  xanthosine: -0.8841
[2]
  EC50: 119 nM

## CCOC(=O)C1=C(c2ccccc2)N=c2sc(=Cc3cc(C)n(-c4ccc(F)cc4)c3C)c(=O)n2C1c1cccc(OC)c1OC (stereo not drawn) [MMV666601]
[1]
  Acetyllysine: -0.456
  N-acetyl-L-ornithine: -0.1781
  N-carbamoyl-L-aspartate: 0.03088
  NADPH: 0.275
  dAMP: -0.2186
  dCMP: 0.01598
  dTDP: -0.2912
  dTMP: -0.2825
  dTTP: -0.02615
  dihydroorotate: 0.05127
  orotate: -0.2921
  DLH: -0.04885
  DLS/SDL/SID: -0.07047
  PD: -0.02012
  PEE: -0.1327
  PVNF: -0.1227
  3-phosphoglycerate: 0.04151
  ADP-D-glucose: -0.1367
  ATP: 0.1113
  CDP: -0.2732
  D-sedoheptulose-1/7-phosphate: -0.3701
  FAD: 0.009316
  GMP: 0.1751
  NAD+: 0.04978
  NADP+: -0.07076
  Octoluse Bisphosphate: -0.0546
  Pyroglutamic acid: 0.2145
  UDP-D-glucose: -0.01836
  UDP-D-glucuronate: -0.09865
  UDP-N-acetyl-glucosamine: -0.01529
  UDP: -0.3315
  UMP: 0.1049
  UTP: 0.1938
  a-ketoglutarate: 0.0362
  citrate/isocitrate: 0.4989
  cytidine: 0.1663
  dATP: 0.2724
  dGMP/AMP: -0.3927
  fumarate: -0.02339
  glucose-1/6-phosphate: -0.02704
  glycerate: 0.006669
  guanine: -0.1817
  guanosine: -0.06753
  hypoxanthine: 0.09643
  indole: 0.007804
  inosine: 0
  2_3-Diphosphoglyceric acid: -0.2012
  4-phosphopantothenate: -0.1061
  6-phospho-D-gluconate: 0.004224
  FMN: -0.01347
  IMP: -0.1927
  Pyrophosphate: -0.04369
  Sedoheptoluse bisphosphate: -0.08738
  cyclic-AMP: 0.1818
  glutathione disulfide: -0.01346
  lactate: -0.02544
  myo-inositol: -0.1142
  nicotinate: 0.07511
  ornithine: -0.266
  phosphoenolpyruvate: -0.02402
  pyruvate: -0.028
  ribose-phosphate: 0.1121
  sarcosine/alanine: -0.3168
  sn-glycerol-3-phosphate: -0.06233
  succinate/methylmalonic acid: 0.1961
  uridine: -0.1775
  xanthosine: 0.2404
[2]
  EC50: 154 nM
